{"source": "patent US20250346580A1", "about": "“NOVEL PYRIMIDINYL SULFONAMIDE DERIVATIVES” (Hoffmann-La Roche Inc., priority 2023, published 2025)", "data": [{"target": "human GPR17 short isoform (Homo sapiens, UniProt Q13304)", "sequence (Q13304 29-367)": "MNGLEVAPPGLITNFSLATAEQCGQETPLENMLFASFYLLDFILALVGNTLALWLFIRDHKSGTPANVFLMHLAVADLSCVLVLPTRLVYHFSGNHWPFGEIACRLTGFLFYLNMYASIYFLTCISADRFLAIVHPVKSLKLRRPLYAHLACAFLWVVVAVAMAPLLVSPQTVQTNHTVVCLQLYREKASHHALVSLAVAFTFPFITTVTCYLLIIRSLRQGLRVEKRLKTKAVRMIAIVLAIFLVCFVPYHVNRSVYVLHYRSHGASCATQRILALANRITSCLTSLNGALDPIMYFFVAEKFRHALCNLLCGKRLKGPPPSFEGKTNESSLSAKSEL", "assay": "GPR17 cAMP assay (hGPR17 cAMP)", "format": "cell-based", "details": "CHO-K1 cells stably expressing human GPR17 short isoform; antagonist mode with EC80 of MDL29,951, forskolin 15 μM, TR-FRET cAMP", "method": "GPR17 cAMP Assay Protocol:\nCHO-K1 cells stably expressing vector containing untagged human GPR17 short isoform (Roche) were cultured at 37° C./5% CO2 in DMEM (Dulbecco's Modified Eagle Medium):F-12 (1:1) supplemented with 10% foetal bovine serum and 400 μg/ml Geneticin.\nChanges in intracellular cyclic adenosine monophosphate (cAMP) levels were quantified using the Nano-TRF Detection Assay kit (Roche Diagnostics, Cat. No. 05214386001). This assay allows for direct cAMP quantification in a homogeneous solution. cAMP is detected based on time-resolved fluorescence energy transfer (TR-FRET) and competitive binding of ruthenylated cAMP and endogenous cAMP to an anti-cAMP monoclonal antibody labeled with AlexaFluor-700. The Ruthenium complex serves as the FRET donor and transfers energy to AlexaFluor-700. The FRET signal is inversely proportional to the cAMP concentration.\nCHO-GPR17S cells were detached with Accutase and resuspended in assay buffer consisting of Hank's Balanced Salt Solution (HBSS), 10 mM HEPES (4-(2-hydroxyethyl) piperazine-1-ethanesulfonic acid solution) and 0.1% bovine serum albumin (pH 7.4). The cells were seeded in black 384-well plates (Corning) at a density of 10'000 cells/20 μl assay buffer until the addition of compounds.\nTest antagonist compounds were serially diluted in dimethyl sulfoxide (DMSO) and spotted in 384-well plates. The compounds were then diluted in HBSS buffer supplemented with an EC80 concentration of MDL29,951 (3-(2-Carboxy-4,6-dichloroindol-3-yl)propionic acid) (GPR17 agonist) plus 3-Isobutyl-1-methylxanthine (IBMX) (0.5 mM final concentration) and added to the cells at room temperature. Forskolin (15 μM final concentration) was added 5 minutes after the test compounds and the cells were incubated at room temperature for 30 minutes. The assay was stopped by adding cAMP detection mix (containing detergents for cell lysis) for 90 minutes at room temperature.\nCellular cAMP was measured using a Paradigm reader (Molecular Devices). The raw data was used to calculate the FRET signal based on the assay's P-factor as per cAMP kit instructions. The data was normalized to the maximal activity of a reference antagonist and dose response curves were fitted to the percent activity of the test compounds using a sigmoidal dose response model (Genedata Screener).", "units": {"IC50": "µM"}, "values": [{"smiles": "COc1nc(NS(=O)(=O)c2c[nH]c(-c3cnc(C)s3)c2)nc(OC)c1OCC(F)F", "note": "[Example 42, N-[5-(2,2-difluoroethoxy)-4,6-dimethoxy-pyrimidin-2-yl]-5-(2-methylthiazol-5-yl)-1H-pyrrole-3-sulfonamide]", "IC50": 1.99}, {"smiles": "COc1nc(NS(=O)(=O)c2c[nH]c(-c3ncccc3F)c2)nc(OC)c1OC(F)F", "note": "[Example 5, N-[5-(difluoromethoxy)-4,6-dimethoxy-pyrimidin-2-yl]-5-(3-fluoro-2-pyridyl)-1H-pyrrole-3-sulfonamide]", "IC50": 0.325}, {"smiles": "COc1nc(NS(=O)(=O)c2c[nH]c(-c3ncccc3F)c2)ncc1CC(F)F", "note": "[Example 24, N-[5-(2,2-difluoroethyl)-4-methoxy-pyrimidin-2-yl]-5-(3-fluoro-2-pyridyl)-1H-pyrrole-3-sulfonamide]", "IC50": 0.331}, {"smiles": "COc1nc(NS(=O)(=O)c2c[nH]c(-c3cccnn3)c2)nc(OC)c1OCC(F)F", "note": "[Example 45, N-[5-(2,2-difluoroethoxy)-4,6-dimethoxy-pyrimidin-2-yl]-5-pyridazin-3-yl-1H-pyrrole-3-sulfonamide]", "IC50": 0.253}, {"smiles": "COc1nc(NS(=O)(=O)c2c[nH]c(-c3nccs3)c2)nc(OC)c1CCC#N", "note": "[Example 10, N-[5-(2-cyanoethyl)-4,6-dimethoxy-pyrimidin-2-yl]-5-thiazol-2-yl-1H-pyrrole-3-sulfonamide]", "IC50": 0.069}, {"smiles": "COc1nc(NS(=O)(=O)c2c[nH]c(-c3nc(C)cs3)c2)nc(OC)c1OCCF", "note": "[Example 31, N-[5-(2-fluoroethoxy)-4,6-dimethoxy-pyrimidin-2-yl]-5-(4-methylthiazol-2-yl)-1H-pyrrole-3-sulfonamide]", "IC50": 0.222}, {"smiles": "COc1nc(NS(=O)(=O)c2c[nH]c(-c3ncccn3)c2)nc(OC)c1OCC(F)F", "note": "[Example 43, N-[5-(2,2-difluoroethoxy)-4,6-dimethoxy-pyrimidin-2-yl]-5-pyrimidin-2-yl-1H-pyrrole-3-sulfonamide]", "IC50": 1.25}, {"smiles": "COc1nc(NS(=O)(=O)c2c[nH]c(-c3cnccn3)c2)nc(OC)c1OCC(F)F", "note": "[Example 48, N-[5-(2,2-difluoroethoxy)-4,6-dimethoxy-pyrimidin-2-yl]-5-pyrazin-2-yl-1H-pyrrole-3-sulfonamide]", "IC50": 1.32}, {"smiles": "COc1nc(NS(=O)(=O)c2c[nH]c(-c3ccccc3F)c2)nc(OC)c1OCCF", "note": "[Example 38, N-[5-(2-fluoroethoxy)-4,6-dimethoxy-pyrimidin-2-yl]-5-(2-fluorophenyl)-1H-pyrrole-3-sulfonamide]", "IC50": 0.124}, {"smiles": "COc1nc(NS(=O)(=O)c2c[nH]cc2Cc2ccccc2)nc(OC)c1CC(F)F", "note": "[Example 21, 4-benzyl-N-[5-(2,2-difluoroethyl)-4,6-dimethoxy-pyrimidin-2-yl]-1H-pyrrole-3-sulfonamide]", "IC50": 0.635}, {"smiles": "COc1nc(NS(=O)(=O)c2c[nH]c(C3CCC3)c2)nc(OC)c1OC(F)F", "note": "[Example 50, 5-cyclobutyl-N-[5-(difluoromethoxy)-4,6-dimethoxy-pyrimidin-2-yl]-1H-pyrrole-3-sulfonamide]", "IC50": 0.748}, {"smiles": "COc1nc(NS(=O)(=O)c2c[nH]c(-c3ccncn3)c2)nc(OC)c1OCC(F)F", "note": "[Example 47, N-[5-(2,2-difluoroethoxy)-4,6-dimethoxy-pyrimidin-2-yl]-5-pyrimidin-4-yl-1H-pyrrole-3-sulfonamide]", "IC50": 1.61}, {"smiles": "COc1nc(NS(=O)(=O)c2c[nH]cc2Cc2ccccc2)nc(OC)c1OCCF", "note": "[Example 28, 4-benzyl-N-[5-(2-fluoroethoxy)-4,6-dimethoxy-pyrimidin-2-yl]-1H-pyrrole-3-sulfonamide]", "IC50": 1.08}, {"smiles": "COc1nc(NS(=O)(=O)c2c[nH]c(-c3cscn3)c2)nc(OC)c1OC(F)F", "note": "[Example 16, N-[5-(difluoromethoxy)-4,6-dimethoxy-pyrimidin-2-yl]-5-thiazol-4-yl-1H-pyrrole-3-sulfonamide]", "IC50": 2.27}, {"smiles": "COc1nc(NS(=O)(=O)c2c[nH]c(-c3nccs3)c2)ncc1CC(F)F", "note": "[Example 34, N-[5-(2,2-difluoroethyl)-4-methoxy-pyrimidin-2-yl]-5-thiazol-2-yl-1H-pyrrole-3-sulfonamide]", "IC50": 0.457}, {"smiles": "COc1nc(NS(=O)(=O)c2c[nH]c(-c3ccccn3)c2)nc(OC)c1OC(F)F", "note": "[Example 18, N-[5-(difluoromethoxy)-4,6-dimethoxy-pyrimidin-2-yl]-5-(2-pyridyl)-1H-pyrrole-3-sulfonamide]", "IC50": 0.344}, {"smiles": "COc1nc(NS(=O)(=O)c2c[nH]c(-c3ccccc3F)c2)nc(OC)c1CC(F)F", "note": "[Example 37, N-[5-(2,2-difluoroethyl)-4,6-dimethoxy-pyrimidin-2-yl]-5-(2-fluorophenyl)-1H-pyrrole-3-sulfonamide]", "IC50": 0.13}, {"smiles": "COc1nc(NS(=O)(=O)c2c[nH]c(-c3cscn3)c2)nc(OC)c1CC(F)F", "note": "[Example 15, N-[5-(2,2-difluoroethyl)-4,6-dimethoxy-pyrimidin-2-yl]-5-thiazol-4-yl-1H-pyrrole-3-sulfonamide]", "IC50": 0.661}, {"smiles": "COc1nc(NS(=O)(=O)c2c[nH]c(-c3ccccc3)c2)nc(OC)c1OC(F)F", "note": "[Example 2, N-[5-(difluoromethoxy)-4,6-dimethoxy-pyrimidin-2-yl]-5-phenyl-1H-pyrrole-3-sulfonamide]", "IC50": 0.478}, {"smiles": "COc1nc(NS(=O)(=O)c2c[nH]c(-c3nccs3)c2)nc(OC)c1OCC(F)F", "note": "[Example 4, N-[5-(2,2-difluoroethoxy)-4,6-dimethoxy-pyrimidin-2-yl]-5-thiazol-2-yl-1H-pyrrole-3-sulfonamide]", "IC50": 0.5}, {"smiles": "COc1nc(NS(=O)(=O)c2c[nH]c(-c3ccccc3F)c2)nc(OC)c1OCC(F)F", "note": "[Example 40, N-[5-(2,2-difluoroethoxy)-4,6-dimethoxy-pyrimidin-2-yl]-5-(2-fluorophenyl)-1H-pyrrole-3-sulfonamide]", "IC50": 0.54}, {"smiles": "COc1nc(NS(=O)(=O)c2c[nH]c(-c3ncccc3F)c2)nc(OC)c1OCC(F)F", "note": "[Example 8, N-[5-(2,2-difluoroethoxy)-4,6-dimethoxy-pyrimidin-2-yl]-5-(3-fluoro-2-pyridyl)-1H-pyrrole-3-sulfonamide]", "IC50": 0.099}, {"smiles": "COc1nc(NS(=O)(=O)c2c[nH]c(-c3ncccc3C)c2)nc(OC)c1OCC(F)F", "note": "[Example 49, N-[5-(2,2-difluoroethoxy)-4,6-dimethoxy-pyrimidin-2-yl]-5-(3-methyl-2-pyridyl)-1H-pyrrole-3-sulfonamide]", "IC50": 0.122}, {"smiles": "COc1nc(NS(=O)(=O)c2c[nH]c(-c3ccccc3F)c2)nc(OC)c1OC(F)F", "note": "[Example 39, N-[5-(difluoromethoxy)-4,6-dimethoxy-pyrimidin-2-yl]-5-(2-fluorophenyl)-1H-pyrrole-3-sulfonamide]", "IC50": 0.354}, {"smiles": "COc1nc(NS(=O)(=O)c2c[nH]c(-c3nccs3)c2)ncc1OCC(F)F", "note": "[Example 9, N-[5-(2,2-difluoroethoxy)-4-methoxy-pyrimidin-2-yl]-5-thiazol-2-yl-1H-pyrrole-3-sulfonamide]", "IC50": 0.697}, {"smiles": "COc1nc(NS(=O)(=O)c2c[nH]c(-c3ccccc3)c2)nc(OC)c1OCCF", "note": "[Example 3, N-[5-(2-fluoroethoxy)-4,6-dimethoxy-pyrimidin-2-yl]-5-phenyl-1H-pyrrole-3-sulfonamide]", "IC50": 0.073}, {"smiles": "COc1nc(NS(=O)(=O)c2c[nH]c(-c3nc(C)cs3)c2)nc(OC)c1CC(F)F", "note": "[Example 20, N-[5-(2,2-difluoroethyl)-4,6-dimethoxy-pyrimidin-2-yl]-5-(4-methylthiazol-2-yl)-1H-pyrrole-3-sulfonamide]", "IC50": 0.198}, {"smiles": "COc1nc(NS(=O)(=O)c2c[nH]c(-c3cncs3)c2)nc(OC)c1OCC(F)F", "note": "[Example 36, N-[5-(2,2-difluoroethoxy)-4,6-dimethoxy-pyrimidin-2-yl]-5-thiazol-5-yl-1H-pyrrole-3-sulfonamide]", "IC50": 0.111}, {"smiles": "COc1nc(NS(=O)(=O)c2c[nH]cc2Cc2ccccc2)nc(OC)c1OC(F)F", "note": "[Example 22, 4-benzyl-N-[5-(difluoromethoxy)-4,6-dimethoxy-pyrimidin-2-yl]-1H-pyrrole-3-sulfonamide]", "IC50": 2.26}, {"smiles": "COc1nc(NS(=O)(=O)c2c[nH]c(C3CCC3)c2)nc(OC)c1OCC(F)F", "note": "[Example 51, 5-cyclobutyl-N-[5-(2,2-difluoroethoxy)-4,6-dimethoxy-pyrimidin-2-yl]-1H-pyrrole-3-sulfonamide]", "IC50": 0.304}, {"smiles": "COc1nc(NS(=O)(=O)c2c[nH]c(-c3ncccc3Cl)c2)nc(OC)c1OCC(F)F", "note": "[Example 46, 5-(3-chloro-2-pyridyl)-N-[5-(2,2-difluoroethoxy)-4,6-dimethoxy-pyrimidin-2-yl]-1H-pyrrole-3-sulfonamide]", "IC50": 0.077}, {"smiles": "COc1nc(NS(=O)(=O)c2c[nH]c(-c3ncccc3F)c2)nc(OC)c1CC(F)F", "note": "[Example 6, N-[5-(2,2-difluoroethyl)-4,6-dimethoxy-pyrimidin-2-yl]-5-(3-fluoro-2-pyridyl)-1H-pyrrole-3-sulfonamide]", "IC50": 0.107}]}]}
